# Earlier results as cited in patent publication US8492371B2, “Compounds as cannabinoid receptor ligands” (priority 2009, dated 2013).
# Conditions: low doses, apolipoprotein E knockout mice; inhibited by SR144528; cited from earlier work
substance,measurement,value
(−)-Δ^9-Tetrahydrocannabinol [THC],progression of atherosclerotic lesions,slowed the progression of atherosclerotic lesions
